Measured values taken from ChEMBL document CHEMBL1201862, “PubChem BioAssay data set” (2004).
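Method: 48-hour compound exposure of cells in 96-well plates, five concentrations, linear interpolation of endpoints. Abbreviation: GI50, concentration required for 50% inhibition of growth.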 The source made the active and inactive calls. Cut-off read from the data, not from the text of the source: active = GI50 up to about 1.1 µM and inactive = higher.

Legend:
Assay in all cases: NCI tumour cell line growth inhibition, 48 h
MDA-N = system: MDA-N
HCT-15 = system: HCT-15
SN12C = system: SN12C
HOP-92 = system: HOP-92
OVCAR-8 = system: OVCAR-8
NCI-H522 = system: NCI-H522
SNB-19 = system: SNB-19
NCI-H226 = system: NCI-H226
HOP-62 = system: HOP-62
ACHN = system: ACHN
BT-549 = system: BT-549
OVCAR-5 = system: OVCAR-5
HL-60 = system: HL-60
SW-620 = system: SW-620
MOLT-4 = system: MOLT-4
EKVX = system: EKVX
OVCAR-4 = system: OVCAR-4
MCF7 = system: MCF7
PC-3 = system: PC-3
SF-539 = system: SF-539
DU-145 = system: DU-145
CAKI-1 = system: CAKI-1
UACC-62 = system: UACC-62
SF-268 = system: SF-268
NCI-H23 = system: NCI-H23
NCI/ADR-RES = system: NCI/ADR-RES
SF-295 = system: SF-295
KM12 = system: KM12
K562 = system: K562
MDA-MB-435 = system: MDA-MB-435
HT-29 = system: HT-29
SK-MEL-2 = system: SK-MEL-2
CCRF-CEM = system: CCRF-CEM
M14 = system: M14
RPMI-8226 = system: RPMI-8226
A498 = system: A498
SK-MEL-28 = system: SK-MEL-28
UO-31 = system: UO-31
786-0 = system: 786-0
IGROV-1 = system: IGROV-1
SK-OV-3 = system: SK-OV-3
HCT-116 = system: HCT-116
COLO 205 = system: COLO 205
SR = system: SR
A549 = system: A549
U-251 = system: U-251
MDA-MB-231 = system: MDA-MB-231
UACC-257 = system: UACC-257
SNB-75 = system: SNB-75
RXF 393 = system: RXF 393
T47D = system: T47D
NCI-H460 = system: NCI-H460
OVCAR-3 = system: OVCAR-3
Hs-578T = system: Hs-578T
SK-MEL-5 = system: SK-MEL-5
LOX IMVI = system: LOX IMVI
Malme-3M = system: Malme-3M
TK-10 = system: TK-10

COc1cc(C2c3c(ccc4ccccc34)C(=O)C3CCC(=O)N32)cc(OC)c1OC (centres undefined)
GI50 (MDA-N): > 50 µM (inactive) | GI50 (HCT-15): > 50 µM | GI50 (SN12C): > 50 µM (inactive) | GI50 (HOP-92): > 50 µM (inactive) | GI50 (OVCAR-8): > 50 µM (inactive) | GI50 (NCI-H522): 25.5 µM (inactive) | GI50 (SNB-19): > 50 µM (inactive) | GI50 (NCI-H226): > 50 µM (inactive) | GI50 (HOP-62): > 50 µM (inactive) | GI50 (ACHN): > 50 µM (inactive) | GI50 (BT-549): > 50 µM (inactive) | GI50 (OVCAR-5): > 50 µM (inactive) | GI50 (HL-60): > 50 µM (inactive) | GI50 (SW-620): > 50 µM (inactive) | GI50 (MOLT-4): > 50 µM (inactive) | GI50 (EKVX): > 50 µM (inactive) | GI50 (OVCAR-4): > 50 µM (inactive) | GI50 (MCF7): > 50 µM (inactive) | GI50 (PC-3): > 50 µM (inactive) | GI50 (SF-539): > 50 µM (inactive) | GI50 (DU-145): > 50 µM (inactive) | GI50 (CAKI-1): > 50 µM (inactive) | GI50 (UACC-62): > 50 µM (inactive) | GI50 (SF-268): > 50 µM (inactive) | GI50 (NCI-H23): > 50 µM (inactive) | GI50 (NCI/ADR-RES): > 50 µM (inactive) | GI50 (SF-295): > 50 µM (inactive) | GI50 (KM12): > 50 µM (inactive) | GI50 (K562): > 50 µM (inactive) | GI50 (MDA-MB-435): > 50 µM (inactive) | GI50 (HT-29): > 50 µM (inactive) | GI50 (SK-MEL-2): > 50 µM (inactive) | GI50 (CCRF-CEM): > 50 µM (inactive) | GI50 (M14): > 50 µM (inactive) | GI50 (RPMI-8226): 46.8 µM (inactive) | GI50 (A498): > 50 µM (inactive) | GI50 (SK-MEL-28): > 50 µM (inactive) | GI50 (UO-31): > 50 µM (inactive) | GI50 (786-0): > 50 µM (inactive) | GI50 (IGROV-1): > 50 µM (inactive) | GI50 (SK-OV-3): > 50 µM (inactive) | GI50 (HCT-116): > 50 µM (inactive) | GI50 (COLO 205): > 50 µM (inactive) | GI50 (SR): 48400 nM (inactive) | GI50 (A549): > 50 µM (inactive) | GI50 (U-251): > 50 µM (inactive) | GI50 (MDA-MB-231): > 50 µM (inactive) | GI50 (UACC-257): > 50 µM (inactive) | GI50 (SNB-75): > 50 µM (inactive) | GI50 (RXF 393): > 50 µM (inactive) | GI50 (T47D): > 50 µM (inactive) | GI50 (NCI-H460): > 50 µM (inactive) | GI50 (OVCAR-3): > 50 µM (inactive) | GI50 (Hs-578T): > 50 µM (inactive)

COC(=O)C(/C(=N/NC(=O)c1ccncc1)C(=O)Nc1ccccc1OC)c1nc2ccc(Cl)cc2nc1O (centres undefined)
GI50 (MDA-N): 47.2 µM (inactive) | GI50 (HCT-15): 63.5 µM | GI50 (SK-MEL-5): > 100 µM (inactive) | GI50 (SN12C): > 100 µM (inactive) | GI50 (HOP-92): > 100 µM (inactive) | GI50 (OVCAR-8): > 100 µM (inactive) | GI50 (NCI-H522): > 100 µM (inactive) | GI50 (NCI-H226): 22.2 µM (inactive) | GI50 (HOP-62): > 100 µM (inactive) | GI50 (ACHN): > 100 µM (inactive) | GI50 (BT-549): > 100 µM (inactive) | GI50 (OVCAR-5): > 100 µM (inactive) | GI50 (HL-60): > 100 µM (inactive) | GI50 (SW-620): > 100 µM (inactive) | GI50 (MOLT-4): > 100 µM (inactive) | GI50 (EKVX): 77.8 µM (inactive) | GI50 (OVCAR-4): 55 µM (inactive) | GI50 (MCF7): > 100 µM (inactive) | GI50 (PC-3): > 100 µM (inactive) | GI50 (SF-539): > 100 µM (inactive) | GI50 (CAKI-1): > 100 µM (inactive) | GI50 (UACC-62): > 100 µM (inactive) | GI50 (SF-268): > 100 µM (inactive) | GI50 (LOX IMVI): > 100 µM (inactive) | GI50 (NCI-H23): > 100 µM (inactive) | GI50 (NCI/ADR-RES): > 100 µM (inactive) | GI50 (SF-295): > 100 µM (inactive) | GI50 (KM12): 92 µM (inactive) | GI50 (K562): 75.9 µM (inactive) | GI50 (MDA-MB-435): 44.3 µM (inactive) | GI50 (HT-29): > 100 µM (inactive) | GI50 (SK-MEL-2): > 100 µM (inactive) | GI50 (CCRF-CEM): > 10 µM (inactive) | GI50 (M14): > 100 µM (inactive) | GI50 (RPMI-8226): 75.5 µM (inactive) | GI50 (A498): > 100 µM (inactive) | GI50 (SK-MEL-28): > 100 µM (inactive) | GI50 (UO-31): 47 µM (inactive) | GI50 (Malme-3M): > 100 µM (inactive) | GI50 (786-0): > 100 µM (inactive) | GI50 (IGROV-1): 11 µM (inactive) | GI50 (SK-OV-3): > 100 µM (inactive) | GI50 (HCT-116): 83.4 µM (inactive) | GI50 (SR): 780 nM (active) | GI50 (TK-10): > 100 µM (inactive) | GI50 (A549): > 100 µM (inactive) | GI50 (U-251): > 100 µM (inactive) | GI50 (MDA-MB-231): > 100 µM (inactive) | GI50 (UACC-257): > 100 µM (inactive) | GI50 (SNB-75): > 100 µM (inactive) | GI50 (RXF 393): > 100 µM (inactive) | GI50 (T47D): > 100 µM (inactive) | GI50 (NCI-H460): > 100 µM (inactive) | GI50 (OVCAR-3): > 100 µM (inactive) | GI50 (Hs-578T): > 100 µM (inactive)

N[C@@H]1CCN(c2c(F)cc3c(=O)c(C(=O)O)cn4c3c2Oc2cc3c(ccc5ccccc53)cc2-4)C1
GI50 (MDA-N): 3.01 µM (inactive) | GI50 (HCT-15): 1.69 µM | GI50 (SK-MEL-5): 2.92 µM (inactive) | GI50 (SN12C): 2.08 µM (inactive) | GI50 (HOP-92): 2.72 µM (inactive) | GI50 (OVCAR-8): 1.7 µM (inactive) | GI50 (NCI-H522): 3.85 µM (inactive) | GI50 (SNB-19): 3.3 µM (inactive) | GI50 (NCI-H226): 6.58 µM (inactive) | GI50 (HOP-62): 4.82 µM (inactive) | GI50 (ACHN): 1.54 µM (inactive) | GI50 (BT-549): 4.03 µM (inactive) | GI50 (OVCAR-5): 13.9 µM (inactive) | GI50 (HL-60): 7.14 µM (inactive) | GI50 (SW-620): 1.41 µM (inactive) | GI50 (MOLT-4): 0.515 µM (active) | GI50 (OVCAR-4): 4.36 µM (inactive) | GI50 (MCF7): 3.13 µM (inactive) | GI50 (PC-3): 2.34 µM (inactive) | GI50 (SF-539): 3.37 µM (inactive) | GI50 (DU-145): 3.28 µM (inactive) | GI50 (CAKI-1): 6.27 µM (inactive) | GI50 (UACC-62): 7.6 µM (inactive) | GI50 (LOX IMVI): 2.34 µM (inactive) | GI50 (NCI-H23): 3.06 µM (inactive) | GI50 (NCI/ADR-RES): > 79.3 µM (inactive) | GI50 (SF-295): 3.68 µM (inactive) | GI50 (KM12): 5.32 µM (inactive) | GI50 (K562): 2.54 µM (inactive) | GI50 (MDA-MB-435): 3.24 µM (inactive) | GI50 (HT-29): 0.585 µM (active) | GI50 (SK-MEL-2): 5.18 µM (inactive) | GI50 (CCRF-CEM): 0.0482 µM (active) | GI50 (M14): 8.79 µM (inactive) | GI50 (RPMI-8226): 4.3 µM (inactive) | GI50 (A498): 4.83 µM (inactive) | GI50 (SK-MEL-28): > 21.1 µM (inactive) | GI50 (UO-31): 5.2 µM (inactive) | GI50 (Malme-3M): 5.27 µM (inactive) | GI50 (786-0): 1.55 µM (inactive) | GI50 (IGROV-1): 1.82 µM (inactive) | GI50 (HCT-116): 1.64 µM (inactive) | GI50 (COLO 205): 4.45 µM (inactive) | GI50 (SR): 659 nM (active) | GI50 (TK-10): 1.45 µM (inactive) | GI50 (A549): 3.29 µM (inactive) | GI50 (U-251): 0.906 µM (active) | GI50 (MDA-MB-231): 4.56 µM (inactive) | GI50 (UACC-257): 0.78 µM (active) | GI50 (SNB-75): 2.89 µM (inactive) | GI50 (RXF 393): 1.64 µM (inactive) | GI50 (T47D): 4.56 µM (inactive) | GI50 (NCI-H460): 0.735 µM (active) | GI50 (OVCAR-3): 5.73 µM (inactive) | GI50 (Hs-578T): 15.9 µM (inactive)
